Values joined by “and” are separate entries in the source; they are usually repeats but may differ in a detail not shown here. Identical values can stand only once. Toxic doses and inconclusive results are not listed. No stated cut-off is given here; in the data, active means T/C of 150% or more; inactive means T/C below 125%.
Test system: L1210 leukemia ip in BDF1 mice, survival T/C
Experiment: NCI In Vivo Anticancer Drug Screen. Data for tumor model L1210 Leukemia (intraperitoneal) in B6D2F1 (BDF1) mice
Conditions: endpoint: mean survival time, higher = longer survival
Procedure, shortened: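 Ratio derived from survival: compound-dosed mice over vehicle-dosed mice, all bearing a transplantable tumor.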

[1] = dose: 100.0 mg/kg/injection, schedule: Q04DX002 (ip), vehicle: Klucel (hydroxypropylcellulose) (HPC)
[2] = dose: 200.0 mg/kg/injection, schedule: Q04DX002 (ip), vehicle: Klucel (hydroxypropylcellulose) (HPC)
[3] = dose: 400.0 mg/kg/injection, schedule: Q04DX002 (ip), vehicle: Klucel (hydroxypropylcellulose) (HPC)
[4] = dose: 100.0 mg/kg/injection, schedule: Q01DX001 (ip), vehicle: saline
[5] = dose: 200.0 mg/kg/injection, schedule: Q01DX001 (ip), vehicle: saline
[6] = dose: 400.0 mg/kg/injection, schedule: Q01DX001 (ip), vehicle: saline
[7] = dose: 50.0 mg/kg/injection, schedule: Q01DX001 (ip), vehicle: carboxymethylcellulose (CMC)
[8] = dose: 100.0 mg/kg/injection, schedule: Q01DX001 (ip), vehicle: carboxymethylcellulose (CMC)
[9] = dose: 200.0 mg/kg/injection, schedule: Q01DX001 (ip), vehicle: carboxymethylcellulose (CMC)
[10] = dose: 400.0 mg/kg/injection, schedule: Q01DX001 (ip), vehicle: carboxymethylcellulose (CMC)
[11] = dose: 100.0 mg/kg/injection, schedule: Q04DX003 (ip), vehicle: saline with Tween-80
[12] = dose: 200.0 mg/kg/injection, schedule: Q04DX003 (ip), vehicle: saline with Tween-80
[13] = dose: 400.0 mg/kg/injection, schedule: Q04DX003 (ip), vehicle: saline with Tween-80
[14] = dose: 100.0 mg/kg/injection, schedule: Q01DX001 (ip), vehicle: Klucel (hydroxypropylcellulose) (HPC)
[15] = dose: 100.0 mg/kg/injection, schedule: Q01DX009 (ip), vehicle: saline with Tween-80
[16] = dose: 200.0 mg/kg/injection, schedule: Q01DX009 (ip), vehicle: saline with Tween-80

Measured: T/C

CN(C)C(=S)SCc1c(O)c(C(C)(C)C)cc2cc(C(C)(C)C)ccc12
inactive: [1] 105 % of control | [2] 110 % of control | [3] 102 % of control

CCCCCCC1(C)NC(=O)NC1=O (stereo not given)
inactive: [4] 102 % of control | [5] 100 % of control | [6] 96 % of control

COc1ccc(NC(=O)NCCN(C)c2ccccc2)cc1
inactive: dose: 100.0 mg/kg/injection, schedule: Q01DX009 (ip), vehicle: Klucel (hydroxypropylcellulose) (HPC) 93 % of control and 90 % of control | [1] 96 % of control and 101 % of control and 107 % of control | dose: 100.0 mg/kg/injection, schedule: Q04DX003 (ip), vehicle: Klucel (hydroxypropylcellulose) (HPC) 98 % of control | dose: 200.0 mg/kg/injection, schedule: Q01DX009 (ip), vehicle: Klucel (hydroxypropylcellulose) (HPC) 97 % of control and 104 % of control | [2] 98 % of control and 100 % of control and 104 % of control | dose: 200.0 mg/kg/injection, schedule: Q04DX003 (ip), vehicle: Klucel (hydroxypropylcellulose) (HPC) 101 % of control | dose: 400.0 mg/kg/injection, schedule: Q01DX009 (ip), vehicle: Klucel (hydroxypropylcellulose) (HPC) 100 % of control and 101 % of control | [3] 96 % of control and 101 % of control and 103 % of control | dose: 400.0 mg/kg/injection, schedule: Q04DX003 (ip), vehicle: Klucel (hydroxypropylcellulose) (HPC) 98 % of control

CN(C)C(=S)Sc1ccc([N+](=O)[O-])cc1
inactive: dose: 75.0 mg/kg/injection, schedule: Q01DX001 (ip), vehicle: other 103 % of control | dose: 150.0 mg/kg/injection, schedule: Q01DX001 (ip), vehicle: other 96 % of control | dose: 300.0 mg/kg/injection, schedule: Q01DX001 (ip), vehicle: other 91 % of control

S=c1nc[nH]c2c1ncn2CCc1ccccc1
inactive: [7] 115 % of control | [8] 101 % of control | [9] 112 % of control | [10] 95 % of control

CC(C)CCCC(C)C1CCC2C3CC(=O)NC45CC4CCC5(C)C3CCC12C (stereo not given)
inactive: [11] 116 % of control | [12] 97 % of control | [13] 92 % of control

Cc1nc(N)sc1N=Nc1ccccc1Br
inactive: dose: 75.0 mg/kg/injection, schedule: Q01DX001 (ip), vehicle: saline 103 % of control | dose: 150.0 mg/kg/injection, schedule: Q01DX001 (ip), vehicle: saline 108 % of control

CSc1cc(C)c(O)c(CO)c1
inactive: dose: 100.0 mg/kg/injection, schedule: Q01DX009 (ip), vehicle: other 92 % of control | dose: 200.0 mg/kg/injection, schedule: Q01DX009 (ip), vehicle: other 97 % of control | dose: 400.0 mg/kg/injection, schedule: Q01DX009 (ip), vehicle: other 92 % of control

COc1cccc(C(=O)O)c1N
inactive: dose: 25.0 mg/kg/injection, schedule: Q01DX001 (ip), vehicle: Klucel (hydroxypropylcellulose) (HPC) 102 % of control | dose: 50.0 mg/kg/injection, schedule: Q01DX001 (ip), vehicle: Klucel (hydroxypropylcellulose) (HPC) 98 % of control | [14] 91 % of control

O=C1CCC(C(=O)O)N1 (stereo not given)
inactive: dose: 50.0 mg/kg/injection, schedule: Q01DX009 (ip), vehicle: saline with Tween-80 94 % of control | [15] 94 % of control | [11] 97 % of control | [16] 86 % of control | [12] 91 % of control

CCCCCC(C)O[Si](C)C1(C)CCCCC1 (stereo not given)
inactive: [11] 94 % of control | [12] 94 % of control | [13] 104 % of control

CCOC(=O)C(C)Oc1ccc([N+](=O)[O-])cc1Cl (stereo not given)
inactive: dose: 100.0 mg/kg/injection, schedule: Q01DX009 (ip), vehicle: gum acacia 94 % of control | dose: 200.0 mg/kg/injection, schedule: Q01DX009 (ip), vehicle: gum acacia 99 % of control | dose: 400.0 mg/kg/injection, schedule: Q01DX009 (ip), vehicle: gum acacia 99 % of control

NCC1C2CC3CC(C2)CC1C3 (stereo not given)
inactive: dose: 12.5 mg/kg/injection, schedule: Q01DX001 (ip), vehicle: saline 106 % of control | dose: 25.0 mg/kg/injection, schedule: Q01DX001 (ip), vehicle: saline 97 % of control | dose: 50.0 mg/kg/injection, schedule: Q01DX001 (ip), vehicle: saline 93 % of control | [1] 98 % of control | [2] 96 % of control

O=C(O)CNC(=S)Nc1ccc(S(=O)(=O)c2ccc(NC(=S)NCC(=O)O)cc2)cc1
inactive: [4] 102 % of control | [5] 102 % of control | [6] 102 % of control

CC1NCc2c(N)nc(N)nc21 (stereo not given)
inactive: [8] 98 % of control | [9] 95 % of control | [10] 98 % of control

Nc1ncc(CCCOc2ccccc2)c(=O)[nH]1
inactive: [11] 96 % of control | [12] 98 % of control | [13] 93 % of control

CCCCCCCCCCCCCCCCNS(=O)(=O)c1ccc2sc(SC)nc2c1
inactive: [12] 90 % of control | [13] 90 % of control

Cc1ccc(CNc2ccc(I)cc2)cc1
inactive: [15] 96 % of control | [16] 96 % of control | dose: 400.0 mg/kg/injection, schedule: Q01DX009 (ip), vehicle: saline with Tween-80 98 % of control

CCOC(=O)CC(=O)NC(C)(CCOCc1ccccc1)C(=O)OCC (stereo not given)
inactive: [7] 101 % of control | [8] 103 % of control | [9] 110 % of control | [10] 103 % of control

OCC1=CC(O)C2C=COC(C3OC(CO)C(O)C(O)C3O)C12 (stereo not given)
inactive: dose: 50.0 mg/kg/injection, schedule: Q01DX009 (ip), vehicle: saline 96 % of control | dose: 100.0 mg/kg/injection, schedule: Q01DX009 (ip), vehicle: saline 96 % of control | dose: 100.0 mg/kg/injection, schedule: Q04DX003 (ip), vehicle: saline 96 % of control | dose: 200.0 mg/kg/injection, schedule: Q01DX009 (ip), vehicle: saline 95 % of control | dose: 200.0 mg/kg/injection, schedule: Q04DX003 (ip), vehicle: saline 100 % of control | dose: 400.0 mg/kg/injection, schedule: Q04DX003 (ip), vehicle: saline 100 % of control

CCCCC(=O)NCC(=O)N1CCC(C(=O)NCCCCC(=O)OC)C1 (stereo not given)
inactive: dose: 100.0 mg/kg/injection, schedule: Q04DX002 (ip), vehicle: saline 96 % of control | dose: 200.0 mg/kg/injection, schedule: Q04DX002 (ip), vehicle: saline 115 % of control | dose: 400.0 mg/kg/injection, schedule: Q04DX002 (ip), vehicle: saline 104 % of control

CC(=O)OCC#CCOC(C)=O
inactive: dose: 50.0 mg/kg/injection, schedule: Q04DX003 (ip), vehicle: saline with Tween-80 100 % of control | [11] 97 % of control | [12] 97 % of control

Nc1c[nH]c(=S)s1
inactive: [14] 94 % of control | dose: 200.0 mg/kg/injection, schedule: Q01DX001 (ip), vehicle: Klucel (hydroxypropylcellulose) (HPC) 99 % of control

O=C(Nc1cccc2ccccc12)Oc1ccc2ccccc2c1
inactive: [1] 96 % of control | [2] 93 % of control | [3] 116 % of control

CC(=O)NC1CCC(O)CC1 (stereo not given)
inactive: [4] 104 % of control | [5] 94 % of control | [6] 107 % of control

CN(C)C(=S)SCC(=O)[O][Sn]([c]1ccccc1)([c]1ccccc1)[c]1ccccc1
inactive: dose: 6.25 mg/kg/injection, schedule: Q04DX002 (ip), vehicle: saline with Tween-80 96 % of control | dose: 12.5 mg/kg/injection, schedule: Q04DX002 (ip), vehicle: saline with Tween-80 93 % of control | dose: 25.0 mg/kg/injection, schedule: Q04DX002 (ip), vehicle: saline with Tween-80 104 % of control

Reference: PubChem BioAssay AID248 (DTP/NCI, 2004)
